Assay results: US20220395472A1 (Dermavant Sciences GmbH, priority 2021, published 2022)

Assays:
Type in all cases: in vivo, human
[1] = test system: adults with plaque psoriasis; experiment: Long-term extension study (PSOARING 3): % BSA affected
Method: The % BSA affected is an estimate of the percentage of total involved skin with psoriasis. For the purpose of clinical estimation, the total palmar surface of the subject's palm and digits was assumed to be approximately equivalent to 1% BSA. The % BSA affected by psoriasis was evaluated (from 0% to 100%). Details on calculation of approximate % BSA involvement in each subject (total and individual) can be found in Appendix 2 of the protocol. Percent BSA is a static assessment made without reference to previous scores.
At Screening, Baseline, and for all efficacy assessments, lesions on the subject's scalp, palms, fingernails, toenails, and soles were not included in the calculation of % BSA affected as these areas were excluded from the efficacy analyses.

[2] = Maximal use study with serial PK sampling: plasma concentrations; conditions: between Days 1 and 29
Source text: (FIG. 2). This decline is further supported by serial PK data collected from previous clinical studies over 28 days of dosing and over 21 days of dosing.

[3] = test system: adults with plaque psoriasis; experiment: Long-term extension study (PSOARING 3): Dermatology Life Quality Index (DLQI); set-up: key to DLQI Total Score, Observed, Mean / DLQI Total Score, Observed, Median: DLQI total score 0–30; higher = greater quality-of-life impairment
Source text: Subjects completed the DLQI questionnaire. The DLQI is a simple, validated, dermatology specific, 10 question questionnaire to assess the impact of the disease on a subject's quality of life. The DLQI is an important outcome measure in dermatology clinical trials and is the most frequently used instrument in randomized, controlled dermatology trials. The DLQI can be analyzed as a total score (where a higher score indicates greater impairment in quality of life) and can also be scored for the following dimensions: Symptoms and Feelings (Items 1 and 2), Daily Activities (Items 3 and 4), Leisure (Items 5 and 6), Work and School (Item 7), Personal Relationships (Items 8 and 9), and Treatment (Item 10).
The DLQI is a 10 item subject reported outcome, 6 domain measure that assessed the extent to which the skin condition had affected the subject's quality of life over the past week. The total score (0 to 30) is the sum of 10 questions with each ranging from 0 to 3. The DLQI was assessed at 4 week intervals. If one question was left unanswered, this was scored as 0 and the scores were summed and expressed as usual out of a maximum of 30. If ≥2 questions were left unanswered, the total DLQI score was considered missing.
DLQI total score and sub scores on DLQI domains and their changes from baseline as well as percent change from baseline values were summarized descriptively. Additional details of the analysis of the DLQI are provided in the SAP.

plaque psoriasis = experiment: 12-week phase 2b trial in psoriasis; conditions: cream 1%; 12-week treatment
Source text: As mentioned, tapinarof is a novel therapeutic aryl hydrocarbon receptor modulating agent (TAMA) in clinical development for the topical treatment of psoriasis and atopic dermatitis. […] AhR modulates T cell responses both through intrinsic control of T cell subset differentiation and via controlling the function of antigen presenting cells. In addition, AhR signaling promotes the conversion of Th17 cells to type 1 regulatory T cells. Aberrant immune responses underpin the pathogenesis of both PsO and AD, and the wide expression of AhR in immune cells makes it an attractive target given the essential role of AhR in regulating inflammatory responses and skin homeostasis. […] These clinical data support the role of AhR in skin immune homeostasis. Given the multitude of AhR-dependent immunoregulatory mechanisms, AhR is an attractive target for novel immunotherapies with the potential to extend therapeutic efficacy following treatment discontinuation; this may provide a unique clinical benefit to patients.
Treatment-emergent adverse events (TEAEs) were reported with a higher frequency in the tapinarof groups than in the vehicle groups. […]

[4] = Week 16, OC, Tapinarof (Pivotal) group
[5] = Week 16, OC, Vehicle (Pivotal) group
[6] = Week 40, OC, Tapinarof (Pivotal) group
[7] = Week 40, OC, Vehicle (Pivotal) group
[8] = Week 16 OC, Tapinarof (Pivotal)
[9] = Week 40 OC, Tapinarof (Pivotal)

CC(C)c1c(O)cc(/C=C/c2ccccc2)cc1O [Tapinarof, 3,5-Dihydroxy-4-isopropyl-trans-stilbene]
mean % BSA affected ([1]; Week 16, LOCF, Tapinarof (Pivotal) group): 2.54% | mean % BSA affected ([1]; Week 16, LOCF, Vehicle (Pivotal) group): 3.36% | mean % BSA affected [1, 4]: 1.97% | mean % BSA affected [1, 5]: 2.89% | mean % BSA affected ([1]; Week 16 LOCF, Overall): 2.82% | mean % BSA affected ([1]; Week 16 OC, Overall): 2.28% | mean % BSA affected ([1]; Week 40, LOCF, Tapinarof (Pivotal) group): 2.44% | mean % BSA affected ([1]; Week 40, LOCF, Vehicle (Pivotal) group): 2.99% | mean % BSA affected [1, 6]: 1.75% | mean % BSA affected [1, 7]: 2.07% | mean % BSA affected ([1]; Week 40 LOCF, Overall): 2.63% | mean % BSA affected ([1]; Week 40 OC, Overall): 1.85% | decline in plasma concentrations [2]: 10 fold | DLQI Total Score, Observed, Mean ([3]; Baseline, Overall): 4.3 | DLQI Total Score, Observed, Median ([3]; Baseline, Overall): 2.0 | DLQI Total Score, Observed, Mean ([3]; Baseline, Tapinarof (Pivotal)): 3.3 | DLQI Total Score, Observed, Median ([3]; Baseline, Tapinarof (Pivotal)): 2.0 | mean (SD) DLQI total score [3, 4]: 2.0 (3.23) | mean (SD) DLQI total score [3, 5]: 3.0 (5.19) | DLQI Total Score, CFBL, Mean ([3]; Week 16 OC, Overall): −1.7 | DLQI Total Score, CFBL, Median ([3]; Week 16 OC, Overall): −1.0 | DLQI Total Score, Observed, Mean ([3]; Week 16 OC, Overall): 2.3 | DLQI Total Score, Observed, Median ([3]; Week 16 OC, Overall): 1.0 | DLQI Total Score, Percent CFBL, Mean ([3]; Week 16 OC, Overall): −30.7% | DLQI Total Score, Percent CFBL, Median ([3]; Week 16 OC, Overall): −60.0% | mean (SD) DLQI total score ([3]; Week 16 OC, Overall): 2.3 (4.02) | DLQI Total Score, CFBL, Mean [3, 8]: −1.0 | DLQI Total Score, CFBL, Median [3, 8]: 0.0 | DLQI Total Score, Observed, Mean [3, 8]: 2.0 | DLQI Total Score, Observed, Median [3, 8]: 1.0 | DLQI Total Score, Percent CFBL, Mean [3, 8]: −21.3% | DLQI Total Score, Percent CFBL, Median [3, 8]: −50.0% | DLQI Total Score, CFBL, Mean ([3]; Week 16 OC, Vehicle (Pivotal)): −3.1 | DLQI Total Score, CFBL, Median ([3]; Week 16 OC, Vehicle (Pivotal)): −3.0 | DLQI Total Score, Observed, Mean ([3]; Week 16 OC, Vehicle (Pivotal)): 3.0 | DLQI Total Score, Observed, Median ([3]; Week 16 OC, Vehicle (Pivotal)): 1.0 | DLQI Total Score, Percent CFBL, Mean ([3]; Week 16 OC, Vehicle (Pivotal)): −45.9% | DLQI Total Score, Percent CFBL, Median ([3]; Week 16 OC, Vehicle (Pivotal)): −73.0% | mean (SD) DLQI total score [3, 6]: 1.6 (2.36) | mean (SD) DLQI total score [3, 7]: 2.0 (4.23) | DLQI Total Score, CFBL, Mean ([3]; Week 40 OC, Overall): −2.0 | DLQI Total Score, CFBL, Median ([3]; Week 40 OC, Overall): −1.0 | DLQI Total Score, Observed, Mean ([3]; Week 40 OC, Overall): 1.7 | DLQI Total Score, Observed, Median ([3]; Week 40 OC, Overall): 1.0 | DLQI Total Score, Percent CFBL, Mean ([3]; Week 40 OC, Overall): −41.6% | DLQI Total Score, Percent CFBL, Median ([3]; Week 40 OC, Overall): −72.1% | DLQI Total Score, CFBL, Mean [3, 9]: −1.1 | DLQI Total Score, CFBL, Median [3, 9]: 0.0 | DLQI Total Score, Observed, Mean [3, 9]: 1.6 | DLQI Total Score, Observed, Median [3, 9]: 1.0 | DLQI Total Score, Percent CFBL, Mean [3, 9]: −25.0% | DLQI Total Score, Percent CFBL, Median [3, 9]: −61.3% | DLQI Total Score, CFBL, Mean ([3]; Week 40 OC, Vehicle (Pivotal)): −3.9 | DLQI Total Score, CFBL, Median ([3]; Week 40 OC, Vehicle (Pivotal)): −3.0 | DLQI Total Score, Observed, Mean ([3]; Week 40 OC, Vehicle (Pivotal)): 2.0 | DLQI Total Score, Observed, Median ([3]; Week 40 OC, Vehicle (Pivotal)): 0.0 | DLQI Total Score, Percent CFBL, Mean ([3]; Week 40 OC, Vehicle (Pivotal)): −69.2% | DLQI Total Score, Percent CFBL, Median ([3]; Week 40 OC, Vehicle (Pivotal)): −88.9% | time efficacy was maintained after treatment cessation (plaque psoriasis): 4 weeks
